Measured values taken from the kinase profiling compilation of Christmann-Franck et al. (2016).

Experiments:
Experiment in all cases: KINOMEscan competition binding
[1] = molecular target: ACVRL1 (human) (UniProt P37023)
[2] = molecular target: BRSK1 (human) (UniProt Q8TDC3)
[3] = molecular target: CAMK1D (human) (UniProt Q8IU85)
[4] = molecular target: CAMK2A (human) (UniProt Q9UQM7)
[5] = molecular target: CDK14 (human) (UniProt O94921)
[6] = molecular target: CDK17 (human) (UniProt Q00537)
[7] = molecular target: CRK2 (P.falciparum) (UniProt P61075)
[8] = molecular target: CSK (human) (UniProt P41240)
[9] = molecular target: CSNK1E (human) (UniProt P49674)
[10] = molecular target: CSNK1G1 (human) (UniProt Q9HCP0)
[11] = molecular target: DYRK1B (human) (UniProt Q9Y463)
[12] = test system: EGFR (human), P00533 [L861Q]
[13] = test system: EGFR (human), P00533 [T790M]
[14] = test system: EIF2AK4 KD2 (human), Q9P2K8 [S808G]
[15] = molecular target: EPHA3 (human) (UniProt P29320)
EPHA3 (human), sequence (P29320 whole entry, looked up): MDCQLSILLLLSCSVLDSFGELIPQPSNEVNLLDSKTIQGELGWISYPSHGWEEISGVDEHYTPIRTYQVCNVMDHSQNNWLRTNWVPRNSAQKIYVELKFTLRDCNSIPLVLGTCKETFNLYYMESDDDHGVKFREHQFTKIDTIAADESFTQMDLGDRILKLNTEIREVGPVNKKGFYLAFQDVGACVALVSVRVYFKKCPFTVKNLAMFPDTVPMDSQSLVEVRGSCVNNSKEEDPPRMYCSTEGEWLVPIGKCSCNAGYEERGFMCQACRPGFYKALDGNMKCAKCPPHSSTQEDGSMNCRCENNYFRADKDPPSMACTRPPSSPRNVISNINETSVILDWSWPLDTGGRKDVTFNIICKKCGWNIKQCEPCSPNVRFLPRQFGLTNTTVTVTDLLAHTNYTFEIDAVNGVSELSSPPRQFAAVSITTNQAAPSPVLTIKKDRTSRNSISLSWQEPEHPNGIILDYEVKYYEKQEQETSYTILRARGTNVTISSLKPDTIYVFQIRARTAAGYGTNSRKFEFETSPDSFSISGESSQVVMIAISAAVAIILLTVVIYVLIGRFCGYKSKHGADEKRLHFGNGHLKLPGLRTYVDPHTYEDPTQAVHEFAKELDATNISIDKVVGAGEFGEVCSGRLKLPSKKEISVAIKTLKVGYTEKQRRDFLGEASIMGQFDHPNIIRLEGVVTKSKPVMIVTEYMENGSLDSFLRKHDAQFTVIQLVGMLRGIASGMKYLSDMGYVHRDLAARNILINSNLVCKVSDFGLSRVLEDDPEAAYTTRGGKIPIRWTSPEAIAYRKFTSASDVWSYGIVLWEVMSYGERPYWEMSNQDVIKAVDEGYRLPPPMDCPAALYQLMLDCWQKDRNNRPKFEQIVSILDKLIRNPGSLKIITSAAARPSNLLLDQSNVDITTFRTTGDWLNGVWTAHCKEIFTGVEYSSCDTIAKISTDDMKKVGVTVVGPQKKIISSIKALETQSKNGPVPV

[16] = molecular target: EPHA6 (human) (UniProt Q9UF33)
[17] = molecular target: ERBB2 (human) (UniProt P04626)
ERBB2 (human), sequence (P04626 whole entry, looked up): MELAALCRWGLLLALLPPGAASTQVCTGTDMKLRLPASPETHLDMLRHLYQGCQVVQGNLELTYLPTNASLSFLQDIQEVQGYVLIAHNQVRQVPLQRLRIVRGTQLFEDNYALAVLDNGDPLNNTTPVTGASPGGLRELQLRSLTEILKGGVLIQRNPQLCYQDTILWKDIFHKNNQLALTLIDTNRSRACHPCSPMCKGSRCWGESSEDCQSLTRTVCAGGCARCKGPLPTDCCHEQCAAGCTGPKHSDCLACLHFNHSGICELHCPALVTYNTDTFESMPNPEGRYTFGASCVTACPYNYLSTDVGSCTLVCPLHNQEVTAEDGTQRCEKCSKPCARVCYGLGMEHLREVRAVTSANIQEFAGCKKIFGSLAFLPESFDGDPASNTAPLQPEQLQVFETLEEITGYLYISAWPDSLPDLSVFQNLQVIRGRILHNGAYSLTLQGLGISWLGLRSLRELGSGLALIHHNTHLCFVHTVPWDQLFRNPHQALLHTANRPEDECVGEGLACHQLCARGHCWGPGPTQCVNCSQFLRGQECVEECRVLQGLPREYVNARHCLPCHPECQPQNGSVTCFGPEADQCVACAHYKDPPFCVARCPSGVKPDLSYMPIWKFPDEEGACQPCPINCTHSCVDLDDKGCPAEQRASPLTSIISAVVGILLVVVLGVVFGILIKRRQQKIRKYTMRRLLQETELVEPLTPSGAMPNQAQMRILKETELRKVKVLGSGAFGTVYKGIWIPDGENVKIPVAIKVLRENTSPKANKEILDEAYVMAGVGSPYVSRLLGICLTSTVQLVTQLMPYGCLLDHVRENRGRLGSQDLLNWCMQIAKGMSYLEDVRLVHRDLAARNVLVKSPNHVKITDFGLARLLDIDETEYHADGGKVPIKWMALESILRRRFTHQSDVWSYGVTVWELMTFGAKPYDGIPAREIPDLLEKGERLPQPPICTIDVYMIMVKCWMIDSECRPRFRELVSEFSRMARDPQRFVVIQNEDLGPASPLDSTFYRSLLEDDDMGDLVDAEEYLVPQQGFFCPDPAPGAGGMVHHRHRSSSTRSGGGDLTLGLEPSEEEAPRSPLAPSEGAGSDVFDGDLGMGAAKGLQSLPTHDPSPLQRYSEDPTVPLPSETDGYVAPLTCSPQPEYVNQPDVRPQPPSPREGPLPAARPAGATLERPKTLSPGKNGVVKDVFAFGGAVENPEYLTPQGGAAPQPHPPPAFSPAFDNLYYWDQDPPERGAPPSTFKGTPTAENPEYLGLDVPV

[18] = molecular target: FRK (human) (UniProt P42685)
[19] = molecular target: FYN (human) (UniProt P06241)
[20] = molecular target: GSK3B (human) (UniProt P49841)
[21] = molecular target: HCK (human) (UniProt P08631)
[22] = molecular target: HIPK1 (human) (UniProt Q86Z02)
[23] = molecular target: LYN (human) (UniProt P07948)
[24] = molecular target: MAP2K1 (human) (UniProt Q02750)
MAP2K1 (human), sequence (Q02750 whole entry, looked up): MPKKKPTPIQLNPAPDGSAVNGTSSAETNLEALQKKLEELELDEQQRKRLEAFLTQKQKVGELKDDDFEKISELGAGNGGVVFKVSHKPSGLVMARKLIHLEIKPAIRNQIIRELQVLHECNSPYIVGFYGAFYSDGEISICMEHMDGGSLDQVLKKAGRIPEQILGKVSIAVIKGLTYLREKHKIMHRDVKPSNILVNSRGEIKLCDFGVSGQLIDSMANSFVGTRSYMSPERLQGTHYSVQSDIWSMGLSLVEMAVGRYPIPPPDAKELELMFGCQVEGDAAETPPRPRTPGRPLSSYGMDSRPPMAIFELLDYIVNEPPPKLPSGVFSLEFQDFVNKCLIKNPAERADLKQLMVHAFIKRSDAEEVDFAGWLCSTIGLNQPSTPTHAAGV

[25] = molecular target: MAP3K11 (human) (UniProt Q16584)
[26] = molecular target: MAP4K2 (human) (UniProt Q12851)
MAP4K2 (human), sequence (Q12851 whole entry, looked up): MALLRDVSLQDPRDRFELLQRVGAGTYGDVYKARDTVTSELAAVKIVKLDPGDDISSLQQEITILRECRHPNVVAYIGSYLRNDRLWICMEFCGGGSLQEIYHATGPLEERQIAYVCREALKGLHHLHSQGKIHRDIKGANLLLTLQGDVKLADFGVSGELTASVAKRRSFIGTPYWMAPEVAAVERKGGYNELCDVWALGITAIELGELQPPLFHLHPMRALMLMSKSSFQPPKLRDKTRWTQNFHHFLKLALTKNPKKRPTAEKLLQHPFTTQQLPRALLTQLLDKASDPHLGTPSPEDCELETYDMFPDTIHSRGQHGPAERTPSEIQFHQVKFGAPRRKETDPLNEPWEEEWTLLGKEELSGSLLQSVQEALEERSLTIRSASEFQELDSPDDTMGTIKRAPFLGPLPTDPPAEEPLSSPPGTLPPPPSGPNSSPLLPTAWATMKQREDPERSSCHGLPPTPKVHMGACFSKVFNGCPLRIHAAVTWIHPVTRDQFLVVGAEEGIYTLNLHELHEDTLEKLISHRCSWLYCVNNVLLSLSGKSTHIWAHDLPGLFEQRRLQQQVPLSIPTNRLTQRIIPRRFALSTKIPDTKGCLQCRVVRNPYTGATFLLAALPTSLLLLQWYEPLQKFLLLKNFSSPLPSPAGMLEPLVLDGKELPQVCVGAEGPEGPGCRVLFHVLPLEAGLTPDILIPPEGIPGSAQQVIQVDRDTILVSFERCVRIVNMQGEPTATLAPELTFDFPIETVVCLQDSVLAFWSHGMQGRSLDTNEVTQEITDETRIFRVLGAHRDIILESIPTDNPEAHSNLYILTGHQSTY

[27] = molecular target: MAPK14 (human) (UniProt Q16539)
[28] = molecular target: MAPK6 (human) (UniProt Q16659)
[29] = molecular target: NEK1 (human) (UniProt Q96PY6)
[30] = molecular target: NEK11 (human) (UniProt Q8NG66)
[31] = molecular target: NEK4 (human) (UniProt P51957)
[32] = molecular target: NEK7 (human) (UniProt Q8TDX7)
[33] = molecular target: OXSR1 (human) (UniProt O95747)
[34] = molecular target: PKN1 (human) (UniProt Q16512)
[35] = molecular target: PLK2 (human) (UniProt Q9NYY3)
[36] = molecular target: PRKX (human) (UniProt P51817)
[37] = molecular target: ROCK1 (human) (UniProt Q13464)
[38] = molecular target: RPS6KB1 (human) (UniProt P23443)
[39] = molecular target: SGK3 (human) (UniProt Q96BR1)
[40] = molecular target: SRC (human) (UniProt P12931)
[41] = molecular target: TGFBR1 (human) (UniProt P36897)
[42] = molecular target: TLK1 (human) (UniProt Q9UKI8)
[43] = molecular target: YSK4 (human) (UniProt Q56UN5)

ACVRL1 (human), sequence (P37023 whole entry, looked up): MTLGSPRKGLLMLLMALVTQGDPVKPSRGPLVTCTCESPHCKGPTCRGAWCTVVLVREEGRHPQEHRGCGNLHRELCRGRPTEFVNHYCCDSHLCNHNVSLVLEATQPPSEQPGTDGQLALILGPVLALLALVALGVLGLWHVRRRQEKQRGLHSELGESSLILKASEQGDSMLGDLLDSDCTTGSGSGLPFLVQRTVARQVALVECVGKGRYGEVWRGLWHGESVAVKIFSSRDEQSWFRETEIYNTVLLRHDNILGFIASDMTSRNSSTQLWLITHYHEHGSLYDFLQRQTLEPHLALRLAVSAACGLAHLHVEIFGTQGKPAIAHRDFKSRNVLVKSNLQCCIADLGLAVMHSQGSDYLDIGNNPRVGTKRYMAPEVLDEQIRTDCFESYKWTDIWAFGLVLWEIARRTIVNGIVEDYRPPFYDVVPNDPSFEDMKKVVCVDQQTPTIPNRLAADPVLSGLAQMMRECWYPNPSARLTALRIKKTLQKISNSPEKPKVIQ
CAMK1D (human), sequence (Q8IU85 whole entry, looked up): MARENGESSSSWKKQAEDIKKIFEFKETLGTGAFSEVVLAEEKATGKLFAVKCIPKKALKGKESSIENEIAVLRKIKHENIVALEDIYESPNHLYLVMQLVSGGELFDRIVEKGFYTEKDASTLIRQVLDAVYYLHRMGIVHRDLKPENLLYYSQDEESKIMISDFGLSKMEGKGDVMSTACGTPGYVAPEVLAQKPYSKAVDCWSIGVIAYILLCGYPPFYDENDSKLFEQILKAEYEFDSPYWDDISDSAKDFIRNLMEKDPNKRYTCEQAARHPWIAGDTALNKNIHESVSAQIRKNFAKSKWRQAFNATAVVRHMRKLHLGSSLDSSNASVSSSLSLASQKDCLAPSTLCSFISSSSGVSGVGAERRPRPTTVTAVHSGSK
CDK14 (human), sequence (O94921 whole entry, looked up): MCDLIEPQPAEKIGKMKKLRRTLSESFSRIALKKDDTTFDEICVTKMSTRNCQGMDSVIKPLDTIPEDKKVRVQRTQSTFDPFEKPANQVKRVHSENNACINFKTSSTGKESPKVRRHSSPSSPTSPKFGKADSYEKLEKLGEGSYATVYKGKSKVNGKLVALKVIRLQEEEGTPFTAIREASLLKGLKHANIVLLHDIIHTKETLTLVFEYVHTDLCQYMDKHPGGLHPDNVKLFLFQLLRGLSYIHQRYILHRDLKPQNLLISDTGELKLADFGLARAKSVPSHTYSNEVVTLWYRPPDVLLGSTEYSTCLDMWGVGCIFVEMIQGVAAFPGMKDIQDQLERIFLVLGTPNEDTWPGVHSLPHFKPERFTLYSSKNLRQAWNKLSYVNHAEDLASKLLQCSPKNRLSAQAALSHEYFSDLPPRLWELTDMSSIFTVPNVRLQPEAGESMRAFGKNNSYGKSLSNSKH

For `CN(C)C/C=C/C(=O)Nc1cccc(C(=O)Nc2ccc(Nc3nccc(-c4c(-c5ccccc5)nn5ccccc45)n3)cc2)c1`, the kinase still bound, per cent of control ([1]; compound 1.0 µM) was 22%, the kinase still bound, per cent of control ([2]; compound 1.0 µM) was 86% and the kinase still bound, per cent of control ([3]; compound 1.0 µM) was 100%. The kinase still bound, per cent of control ([4]; compound 1.0 µM) was 100%, the kinase still bound, per cent of control ([5]; compound 1.0 µM) was 100% and the kinase still bound, per cent of control ([6]; compound 1.0 µM) was 100%. It also gave a kinase still bound, per cent of control ([7]; compound 1.0 µM) of 100%, a kinase still bound, per cent of control ([8]; compound 1.0 µM) of 89% and a kinase still bound, per cent of control ([9]; compound 1.0 µM) of 0%. For the same compound, the kinase still bound, per cent of control ([10]; compound 1.0 µM) was 39%, the kinase still bound, per cent of control ([11]; compound 1.0 µM) was 100% and the kinase still bound, per cent of control ([12]; compound 1.0 µM) was 0.75%. It also gave a kinase still bound, per cent of control ([13]; compound 1.0 µM) of 11%, a kinase still bound, per cent of control ([14]; compound 1.0 µM) of 76% and a kinase still bound, per cent of control ([15]; compound 1.0 µM) of 65%. The kinase still bound, per cent of control ([16]; compound 1.0 µM) was 32%, the Kd [17] was 230 nM and the kinase still bound, per cent of control ([17]; compound 1.0 µM) was 0.4%. For the same compound, the kinase still bound, per cent of control ([18]; compound 1.0 µM) was 32%, the kinase still bound, per cent of control ([19]; compound 1.0 µM) was 49% and the kinase still bound, per cent of control ([20]; compound 1.0 µM) was 49%. It also gave a kinase still bound, per cent of control ([21]; compound 1.0 µM) of 23%, a kinase still bound, per cent of control ([22]; compound 1.0 µM) of 100% and a kinase still bound, per cent of control ([23]; compound 1.0 µM) of 58%. The kinase still bound, per cent of control ([24]; compound 1.0 µM) was 100%, the kinase still bound, per cent of control ([25]; compound 1.0 µM) was 71% and the kinase still bound, per cent of control ([26]; compound 1.0 µM) was 90%. The kinase still bound, per cent of control ([27]; compound 1.0 µM) was 2.1%, the kinase still bound, per cent of control ([28]; compound 1.0 µM) was 71% and the kinase still bound, per cent of control ([29]; compound 1.0 µM) was 100%. It also gave a kinase still bound, per cent of control ([30]; compound 1.0 µM) of 100%, a kinase still bound, per cent of control ([31]; compound 1.0 µM) of 100% and a kinase still bound, per cent of control ([32]; compound 1.0 µM) of 100%. The kinase still bound, per cent of control ([33]; compound 1.0 µM) was 100%, the kinase still bound, per cent of control ([34]; compound 1.0 µM) was 100% and the kinase still bound, per cent of control ([35]; compound 1.0 µM) was 81%. For the same compound, the kinase still bound, per cent of control ([36]; compound 1.0 µM) was 94%, the kinase still bound, per cent of control ([37]; compound 1.0 µM) was 59% and the kinase still bound, per cent of control ([38]; compound 1.0 µM) was 83%. The kinase still bound, per cent of control ([39]; compound 1.0 µM) was 91%, the kinase still bound, per cent of control ([40]; compound 1.0 µM) was 18% and the kinase still bound, per cent of control ([41]; compound 1.0 µM) was 12%. It also gave a kinase still bound, per cent of control ([42]; compound 1.0 µM) of 67% and a kinase still bound, per cent of control ([43]; compound 1.0 µM) of 62%.

For `Cc1ccc(NC(=O)c2ccc(NC(=O)/C=C/CN(C)C)cc2)cc1Nc1nccc(-c2cccnc2)n1`, the kinase still bound, per cent of control ([1]; compound 10.0 µM) was 100%, the kinase still bound, per cent of control ([2]; compound 10.0 µM) was 53% and the kinase still bound, per cent of control ([3]; compound 10.0 µM) was 85%. For the same compound, the kinase still bound, per cent of control ([4]; compound 10.0 µM) was 93%, the kinase still bound, per cent of control ([5]; compound 10.0 µM) was 100% and the kinase still bound, per cent of control ([6]; compound 10.0 µM) was 100%. The kinase still bound, per cent of control ([7]; compound 10.0 µM) was 100%, the kinase still bound, per cent of control ([8]; compound 10.0 µM) was 100% and the kinase still bound, per cent of control ([9]; compound 10.0 µM) was 72%. The kinase still bound, per cent of control ([10]; compound 10.0 µM) was 85%, the kinase still bound, per cent of control ([11]; compound 10.0 µM) was 68% and the kinase still bound, per cent of control ([12]; compound 10.0 µM) was 45%. It also gave a kinase still bound, per cent of control ([13]; compound 10.0 µM) of 92%, a kinase still bound, per cent of control ([14]; compound 10.0 µM) of 100% and a kinase still bound, per cent of control ([15]; compound 10.0 µM) of 83%. For the same compound, the kinase still bound, per cent of control ([16]; compound 10.0 µM) was 100%, the kinase still bound, per cent of control ([17]; compound 10.0 µM) was 50% and the kinase still bound, per cent of control ([18]; compound 10.0 µM) was 86%. For the same compound, the kinase still bound, per cent of control ([19]; compound 10.0 µM) was 95%, the kinase still bound, per cent of control ([20]; compound 10.0 µM) was 87% and the kinase still bound, per cent of control ([21]; compound 10.0 µM) was 89%. The kinase still bound, per cent of control ([22]; compound 10.0 µM) was 44%, the kinase still bound, per cent of control ([23]; compound 10.0 µM) was 54% and the kinase still bound, per cent of control ([24]; compound 10.0 µM) was 95%. The kinase still bound, per cent of control ([25]; compound 10.0 µM) was 100%, the kinase still bound, per cent of control ([26]; compound 10.0 µM) was 81% and the kinase still bound, per cent of control ([27]; compound 10.0 µM) was 66%. For the same compound, the kinase still bound, per cent of control ([28]; compound 10.0 µM) was 85%, the kinase still bound, per cent of control ([29]; compound 10.0 µM) was 100% and the kinase still bound, per cent of control ([30]; compound 10.0 µM) was 78%. The kinase still bound, per cent of control ([31]; compound 10.0 µM) was 100%, the kinase still bound, per cent of control ([32]; compound 10.0 µM) was 20% and the kinase still bound, per cent of control ([33]; compound 10.0 µM) was 82%. It also gave a kinase still bound, per cent of control ([34]; compound 10.0 µM) of 100%, a kinase still bound, per cent of control ([35]; compound 10.0 µM) of 34% and a kinase still bound, per cent of control ([36]; compound 10.0 µM) of 43%. It also gave a kinase still bound, per cent of control ([37]; compound 10.0 µM) of 59%, a kinase still bound, per cent of control ([38]; compound 10.0 µM) of 100% and a kinase still bound, per cent of control ([39]; compound 10.0 µM) of 99%. It also gave a kinase still bound, per cent of control ([40]; compound 10.0 µM) of 78%, a kinase still bound, per cent of control ([41]; compound 10.0 µM) of 100% and a kinase still bound, per cent of control ([42]; compound 10.0 µM) of 74%. The kinase still bound, per cent of control ([43]; compound 10.0 µM) was 28%.
